From the NIST ThermoML archive (doi:10.1016/j.fluid.2012.11.008)
± gives the expanded uncertainty stated by the source.

Test: refractive index (Na D-line) (dimensionless)
Conditions: 293.15 K; 101.33 kPa; Liquid; Standard Abbe refractometry

Row | refractive index | SMILES
1 | 1.3618 ± 0.0007 | CCO [ethanol]
2 | 1.3752 ± 0.0007 | CCCCCC [hexane]
3 | 1.3724 ± 0.0007 | CCOC(C)=O [ethyl acetate]
4 | 1.3878 ± 0.0007 | CCCCCCC [heptane]
5 | 1.4003 ± 0.0008 | CCC=C(C)C [2-methyl-2-pentene]

Second part, the compound before the results:

Row | SMILES | refractive index
6 | CC#N [acetonitrile] | 1.3439 ± 0.0007
7 | CO [methanol] | 1.3287 ± 0.0007
8 | CCC(C)(C)OC [2-methoxy-2-methylbutane] | 1.3886 ± 0.0009
9 | COC(C)(C)C [2-methoxy-2-methylpropane] | 1.3689 ± 0.0007
